Reference: patent US20260250251A1, “HETEROCYCLIC COMPOUNDS AS PI3Ka INHIBITORS” (Pikavation Therapeutics, Inc., priority 2022, published 2026)

Legend:
[1] = system: SKBR3 (PIK3CA WT) cells, pSer473 AKT; experiment: pS473 AKT assay in SKBR3 cells; type: cell-based; conditions: Homo sapiens, SK-BR-3, treated 2 h, read-out: SKBR3_IC50
Procedure: (§1) SKBR3 (PIK3CA WT), MCF7 (PIK3CA E545K), and T47D (PIK3CA H1047R) cells were cultured using 10-cm petri dishes with recommended medium. One day before the assay, cells were seeded in 96-well plates. After overnight incubation, cells were treated with different concentrations of PI3Kα inhibitors for 2 h. Cells were then fixed using 4% paraformaldehyde at room temperature for 20 min. Cells were aspirated with 4% paraformaldehyde, and washed using 1× regular phosphate buffered saline 3 times, 5 min each. Any residual phosphate buffered saline was aspirated and cells were blocked using 10% goat serum containing 1% bovine serum albumin and 0.3% Triton X-100 at room temperature for 1 h. Without any additional washing, primary antibodies (rabbit anti-pSer473 AKT) were diluted using blocking buffer and added at a final volume of 50 microliter per well. Assay plates with primary antibodies were maintained overnight at 4° C. Cells were washed using 1× regular phosphate buffered saline 3 times, 5 min each. After the final wash, cells were incubated with horseradish peroxidase-conjugated secondary antibodies (goat Anti-rabbit IgG) and diluted using the same blocking buffer at room temperature for 1 h. Cells were then washed thoroughly using 1× regular phosphate buffered saline 3 times, 5 min each, and any residual phosphate buffered saline was aspirated. Super-Signal ELISA Pico Chemiluminescent Substrate was then added at a final volume of 100 microliter per well. Plates were read on a i3x Multi-Mode Microplate Reader and IC50 values calculated using GraphPad Prism software.
(§2) Results of the assay described above are presented in Table A. “++++” indicates an IC50 less than 1000 nM; “+++” indicates an IC50 greater than or equal to 1000 nM but less than 5000 nM; “++” indicates an IC50 greater than or equal to 5000 nM but less than 10000 nM; and “+” indicates an IC50 greater than or equal to 10000 nM.

[2] = system: T47D (PIK3CA H1047R) cells, pSer473 AKT; experiment: pS473 AKT assay in T47D cells; type: cell-based; conditions: Homo sapiens, treated 2 h, read-out: T47D_IC50
Procedure: as §1, §2

Structure (SMILES) | IC50 [1] | IC50 [2]
Nc1nn2c3c(cc(NC(=O)c4cc(F)cc(C(F)(F)F)c4)c(Oc4cc(F)ccc4Cl)c13)-c1ccccc1C2 [Example 70, N-(4-Amino-3-(2-chloro-5-fluorophenoxy)-7H-pyrazolo[4,5,1-de]phenanthridin-2-yl)-3-fluoro-5-(trifluoromethyl)benzamide] | ≥ 10 µM | < 1 µM
Cn1nc(N)c2c(Oc3cc(F)ccc3Cl)c(NC(=O)c3cc(F)cc(C(F)(F)F)c3)cc(C#CC3(N)CC3)c21 [Example 45, N-(3-Amino-7-((1-aminocyclopropyl)ethynyl)-4-(2-chloro-5-fluorophenoxy)-1-methyl-1H-indazol-5-yl)-3-fluoro-5-(trifluoromethyl)benzamide] | < 1 µM | < 1 µM
CCNC(=O)c1cc(NC(=O)c2cc(F)cc(C(F)(F)F)c2)c(Oc2cc(F)ccc2Cl)c2c(N)nn(C)c12 [Example 65, 3-Amino-4-(2-chloro-5-fluorophenoxy)-N-ethyl-5-(3-fluoro-5-(trifluoromethyl)benzamido)-1-methyl-1H-indazole-7-carboxamide] | < 1 µM | < 1 µM
Nc1n[nH]c2c(Br)cc(NC(=O)c3cc(F)cc(C(F)(F)F)c3)c(Oc3cc(F)ccc3Cl)c12 [Example 11, N-(3-Amino-7-bromo-4-(2-chloro-5-fluorophenoxy)-1H-indazol-5-yl)-3-fluoro-5-(trifluoromethyl)benzamide] | < 1 µM | < 1 µM
Cn1nc(N)c2c(Oc3cc(F)ccc3Cl)c(NC(=O)c3cc(F)cc(C(F)(F)F)c3)cc(C#CC3(C)COC3)c21 [Example 46, N-(3-Amino-4-(2-chloro-5-fluorophenoxy)-1-methyl-7-((3-methyloxetan-3-yl)ethynyl)-1H-indazol-5-yl)-3-fluoro-5-(trifluoromethyl)benzamide] | 1 to 5 µM | < 1 µM
CN1Cc2cc(NC(=O)c3cc(F)cc(C(F)(F)F)c3)c(Oc3cc(F)ccc3Cl)c3c(N)nn(c23)C1=O [Example 69, N-(2-Amino-3-(2-chloro-5-fluorophenoxy)-7-methyl-8-oxo-7,8-dihydro-6H-pyrazolo[4,5,1-ij]quinazolin-4-yl)-3-fluoro-5-(trifluoromethyl)benzamide] | < 1 µM | < 1 µM
Cn1nc(N)c2c(Oc3cc(F)ccc3Cl)c(NC(=O)c3cc(F)cc(C(F)(F)F)c3)cc(C#CC3(O)CC3)c21 [Example 43, N-(3-Amino-4-(2-chloro-5-fluorophenoxy)-7-((1-hydroxycyclopropyl)ethynyl)-1-methyl-1H-indazol-5-yl)-3-fluoro-5-(trifluoromethyl)benzamide] | < 1 µM | < 1 µM
Cn1nc(N)c2c(Oc3cc(F)ccc3Cl)c(NC(=O)c3cc(F)cc(C(F)(F)F)c3)cc(C#CC3CCOCC3)c21 [Example 38, N-(3-Amino-4-(2-chloro-5-fluorophenoxy)-1-methyl-7-((tetrahydro-2H-pyran-4-yl)ethynyl)-1H-indazol-5-yl)-3-fluoro-5-(trifluoromethyl)benzamide] | 1 to 5 µM | < 1 µM
Cn1nc(N)c2c(Oc3cc(F)ccc3Cl)c(NC(=O)c3cc(F)cc(C(F)(F)F)c3)cc(C#CC3CC3)c21 [Example 42, N-(3-Amino-4-(2-chloro-5-fluorophenoxy)-7-(cyclopropylethynyl)-1-methyl-1H-indazol-5-yl)-3-fluoro-5-(trifluoromethyl)benzamide] | 1 to 5 µM | < 1 µM
CCn1nc(N)c2c(Oc3cc(F)ccc3Cl)c(NC(=O)c3cc(F)cc(C(F)(F)F)c3)ccc21 [Example 8, N-(3-Amino-4-(2-chloro-5-fluorophenoxy)-1-ethyl-1H-indazol-5-yl)-3-fluoro-5-(trifluoromethyl)benzamide] | < 1 µM | < 1 µM
Cn1nc(N)c2c(Oc3cc(F)ccc3Cl)c(NC(=O)N3CCc4ccccc43)cc(Cl)c21 [Example 64, N-(3-Amino-7-chloro-4-(2-chloro-5-fluorophenoxy)-1-methyl-1H-indazol-5-yl)indoline-1-carboxamide] | 1 to 5 µM | < 1 µM
Nc1n[nH]c2ccc(NC(=O)N3CC(O)(C(F)(F)F)c4cc(F)ccc43)c(Oc3cc(F)ccc3Cl)c12 (stereo not drawn) [Example 19, N-(3-Amino-4-(2-chloro-5-fluorophenoxy)-1H-indazol-5-yl)-5-fluoro-3-hydroxy-3-(trifluoromethyl)indoline-1-carboxamide] | 1 to 5 µM | < 1 µM
Cn1nccc1-c1cc(NC(=O)c2cc(F)cc(C(F)(F)F)c2)c(Oc2cc(F)ccc2Cl)c2c(N)n[nH]c12 [Example 15, N-(3-Amino-4-(2-chloro-5-fluorophenoxy)-7-(1-methyl-1H-pyrazol-5-yl)-1H-indazol-5-yl)-3-fluoro-5-(trifluoromethyl)benzamide] | < 1 µM | < 1 µM
Nc1nn2c(=O)c3ccccc3c3cc(NC(=O)c4cc(F)cc(C(F)(F)F)c4)c(Oc4cc(F)ccc4Cl)c1c32 [Example 73, N-(4-Amino-3-(2-chloro-5-fluorophenoxy)-7-oxo-7H-pyrazolo[4,5,1-de]phenanthridin-2-yl)-3-fluoro-5-(trifluoromethyl)benzamide] | < 1 µM | < 1 µM
Nc1nn(CCN2CCC2)c2c(Cl)cc(NC(=O)c3cc(F)cc(C(F)(F)F)c3)c(Oc3cc(F)ccc3Cl)c12 [Example 56, N-(3-Amino-1-(2-(azetidin-1-yl)ethyl)-7-chloro-4-(2-chloro-5-fluorophenoxy)-1H-indazol-5-yl)-3-fluoro-5-(trifluoromethyl)benzamide] | 1 to 5 µM | < 1 µM
Nc1n[nH]c2c(Cl)cc(NC(=O)c3cc(F)cc(C(F)(F)F)c3)c(Oc3cc(F)ccc3Cl)c12 [Example 12, N-(3-Amino-7-chloro-4-(2-chloro-5-fluorophenoxy)-1H-indazol-5-yl)-3-fluoro-5-(trifluoromethyl)benzamide] | < 1 µM | < 1 µM
CS(=O)(=O)n1nc(N)c2c(Oc3cc(F)ccc3Cl)c(NC(=O)c3cc(F)cc(C(F)(F)F)c3)cc(Br)c21 [Example 81, N-(3-Amino-7-bromo-4-(2-chloro-5-fluorophenoxy)-1-(methylsulfonyl)-1H-indazol-5-yl)-3-fluoro-5-(trifluoromethyl)benzamide] | 1 to 5 µM | < 1 µM
Cn1cnc(C#Cc2cc(NC(=O)c3cc(F)cc(C(F)(F)F)c3)c(Oc3cc(F)ccc3Cl)c3c(N)nn(C)c23)c1 [Example 50, N-(3-Amino-4-(2-chloro-5-fluorophenoxy)-1-methyl-7-((1-methyl-1H-imidazol-4-yl)ethynyl)-1H-indazol-5-yl)-3-fluoro-5-(trifluoromethyl)benzamide] | 5 to 10 µM | < 1 µM
Cn1nc(N)c2c(Oc3cc(F)ccc3Cl)c(NC(=O)c3cc(F)cc(C(F)(F)F)c3)cc(-c3cncnc3)c21 [Example 29, N-(3-Amino-4-(2-chloro-5-fluorophenoxy)-1-methyl-7-(pyrimidin-5-yl)-1H-indazol-5-yl)-3-fluoro-5-(trifluoromethyl)benzamide] | 1 to 5 µM | < 1 µM
Nc1nn2c3c(cc(NC(=O)c4cc(F)cc(C(F)(F)F)c4)c(Oc4cc(F)ccc4Cl)c13)CN(C1CCC1)C2=O [Example 72, N-(2-Amino-3-(2-chloro-5-fluorophenoxy)-7-cyclobutyl-8-oxo-7,8-dihydro-6H-pyrazolo[4,5,1-ij]quinazolin-4-yl)-3-fluoro-5-(trifluoromethyl)benzamide] | < 1 µM | < 1 µM
Cn1nc(N)c2c(Oc3cc(F)ccc3Cl)c(NC(=O)c3cc(F)cc(C(F)(F)F)c3)cc(C#CCO)c21 [Example 49, N-(3-Amino-4-(2-chloro-5-fluorophenoxy)-7-(3-hydroxyprop-1-yn-1-yl)-1-methyl-1H-indazol-5-yl)-3-fluoro-5-(trifluoromethyl)benzamide] | < 1 µM | < 1 µM
Cn1nc(N)c2c(Oc3cc(F)ccc3Cl)c(NC(=O)c3csc4ccccc34)cc(Cl)c21 [Example 63, N-(3-Amino-7-chloro-4-(2-chloro-5-fluorophenoxy)-1-methyl-1H-indazol-5-yl)benzo[b]thiophene-3-carboxamide] | 1 to 5 µM | < 1 µM
Nc1n[nH]c2c(CO)cc(NC(=O)c3cc(F)cc(C(F)(F)F)c3)c(Oc3cc(F)ccc3Cl)c12 [Example 23, N-(3-Amino-4-(2-chloro-5-fluorophenoxy)-7-(hydroxymethyl)-1H-indazol-5-yl)-3-fluoro-5-(trifluoromethyl)benzamide] | < 1 µM | < 1 µM
NC(=O)Cn1nc(N)c2c(Oc3cc(F)ccc3Cl)c(NC(=O)c3cc(F)cc(C(F)(F)F)c3)cc(Br)c21 [Example 33, N-(3-Amino-1-(2-amino-2-oxoethyl)-7-bromo-4-(2-chloro-5-fluorophenoxy)-1H-indazol-5-yl)-3-fluoro-5-(trifluoromethyl)benzamide] | 1 to 5 µM | < 1 µM
